Test results reported in patent US8163894B2, “DNA for eukaryotic expression of CymR” (National Research Council of Canada, priority 2001, dated 2012).
Like-named read-outs stand apart in the source and are kept apart here.

Experiments:
[1] = test system: CymR-mediated expression (P2-cymlacZ fusion system); experiment: Induction of expression in the P2-cymlacZ fusion system by candidate effectors; type: cell-based, Pseudomonas putida
Text: The need to solubilize p-cumate (p-cumic acid) in organic solvent (e.g. ethanol or dimethyl formamide) is a great disadvantage. The present invention thus provides water-soluble effectors as well as possibly expanding the spectrum of inducers beyond p-cumate. At first, cumic alcohol, 4-methyl benzylalcohol, ethyltoluene, indole-2-carboxylic acid, indole-3-carboxylic acid, benzoic acid, 3- and 4-hydroxybenzoic acids, 3,4-dihyroxybenzoic acid and 2,4-dihydrobenzoic acid were tried. […] In this P2-cymlacZ fusion system, the threshold cumate concentration for induction is in the order of 0.002 millimolar (mM).
The sodium salt of cumic acid was also tested vs cumic acid (taken as cumate).
Both sodium benzoate and sodium toluate are ineffective.

293 CuO-GFP clone 13 = experiment: Testing of cumate analogues as effector molecule (FIG. 16); type: cell-based
Text: Of course cumate can be substituted for various cumate analogues also referred to as effector molecule as described before.
The Deposits were received by the authority on Apr. 10, 2002, and were given accession number IDA-100402-1 and IDA-100402-2, respectively. 293 CuO-GFP clone 13 was also deposited on Apr. 10, 2002 in the same IDA and was given accession number IDA-100401-3.

mammalian cells = experiment: Effect of cumate on morphology, growth and toxicity in mammalian cells; type: cell-based
293-CymR cells = type: cell-based; details: 293-CymR infected with rAd expressing VSVg
[2] = test system: cumate activator (rAd vectors); experiment: Co-infection with recombinant adenoviral reporter and activator viruses
[3] = target: CymR-VP16 transactivator in HeLa cells (Pseudomonas putida, UniProt O33453); experiment: Cumate switch strategy 1: transient co-transfection, β-gal, HeLa cells; type: cell-based
Description: Transient transfections in 293 and HeLa cells were carried out using the calcium phosphate technique. One (1) ml of DNA-calcium phosphate precipitate contained 5 μg reporter, 250 ng activator/repressor (unless mentioned otherwise) and 3 μg seap in a total of 10 μg DNA. This was divided equally between two 60 mm plates, each containing 10^6 293 cells. One of the two plates received in addition 200 μg/ml cumate. Transient transfections in BMAD78-42 were carried out using Geneporter™ according to manufacturers directions. Briefly, 3 μg DNA (2 μg reporter, 25 ng transactivator and 0.5 μg seap) in 500 μl DMEM was added to 6×10^5 BMAd78-42 cells in DMEM. After 3 h 1 ml DMEM supplemented with 20% serum was added to the plates. […]
Measurement of Seap and β-gal activity Seap activity was measured in 50 μl of cell culture medium by adding 50 μl of 2× seap buffer (1M diethanolamine PH 9.8, 2 mM MgCl2, 10 mM 1-homoarginine and 20 mM p-nitrophenyl phosphate, disodium, hexahydrate Sigma 104 phosphatase substrate) and incubating at room temperature. OD405 was read using a plate reader at different intervals. This information was used to ensure that the enzyme activity was measured under conditions where the substrate was in excess. β-galactosidase activity was measured in transfected cell extracts. […] OD420 was measured at regular intervals until the reaction appeared to plateau. […]

293-CuO-GFPq13# cells = experiment: GFP expression from stably integrated pAdCMV5-CuO-GFPq in 293-CuO-GFPq13#; type: cell-based
Description: 1×10^6 293-CymR clone 21 were transfected with 10 μg of pAdCMV5-CuO-GFPq. GFP expression was induced by the addition of 200 μg/ml cumate and individual GFP positive cells were picked by Quixell™ (Caron, A. W., et al., Methods in cell science 22: 137-145, 2000).
293-CuO-GFPq13# were cultured in the presence and absence of cumate for 48 h. Photographs were taken using an inverted fluorescence microscope (Leica, Wetzlar, Germany). […] In the OFF state (FIG. 15B) only two GFP-positive cells are visible in the microscopic field.
Total GFP fluorescence was measured in the ON (9255) and OFF (3.75) states using an EPICS-XL flow cytometer (Coulter). The ON/OFF ratio for this clone was […].

293-CymR clone 21 = type: cell-based; details: 200 μg/ml cumate, 48 h post-transfection
[4] = test system: CHO-cTA clones (cumate transactivator); experiment: Adenoviral infection of CHO-cTA clones, total GFP fluorescence by flow cytometry; type: cell-based
Description: 1×10^6 CHO cells were transfected with 5 μg of pMPG-cTA-tk-neo-nls using 12 μl of LIPOFECTAMINE 2000 according to the instructions of the manufacturer. 1200 μg/ml G418 was added to the growth medium 48 h after transfection to select a pool of G418-resistant cells. Individual clones (CHO-cTA) were isolated from this pool by the method of limiting dilution.
CHO-cTA clones were infected with AdCMV5GFPq or AdCR5GFPq at MOIs of 100, 300 and 900 in the presence or absence of 200 μg/ml cumate. Forty-eight hours post-infection, cells were fixed in 2% paraformaldehyde in PBS. Total GFP fluorescence of the infected population was measured using an EPICS-XL flow cytometer (Coulter).

[5] = target: CymR-VP16 transactivator in BMAdE1/78-42 cells (Pseudomonas putida, UniProt O33453); type: cell-based
Description: Measurement of Seap and β-gal activity Seap activity was measured in 50 μl of cell culture medium by adding 50 μl of 2× seap buffer (1M diethanolamine PH 9.8, 2 mM MgCl2, 10 mM 1-homoarginine and 20 mM p-nitrophenyl phosphate, disodium, hexahydrate Sigma 104 phosphatase substrate) and incubating at room temperature. OD405 was read using a plate reader at different intervals. This information was used to ensure that the enzyme activity was measured under conditions where the substrate was in excess. β-galactosidase activity was measured in transfected cell extracts. Cells were lysed 48 h post-transfection by three freeze-thaw cycles in 0.25M Tris.Hcl pH8. The cell lysate was centrifuged at 14,000×g and enzyme (β-galactosidase) activity was measured in the supernatant (cell extract) using a colorimetric assay containing 1 mM MgCl2, 0.9 mg/ml ONPG, and 66 mM sodium phosphate (pH 7.5). […] OD420 was measured at regular intervals until the reaction appeared to plateau. […]

293-CymR clones = experiment: Infection of 293-CymR clones with AdCMV5-Og-LacZ, β-galactosidase activity; type: cell-based; details: 200 μg/ml cumate
Description: 1×10^6 293 cells were transfected with 10 μg of pCymR/tk-neo by the calcium phosphate technique. 400 μg/ml G418 was added to the growth medium 48 h after transfection to select a pool of G418-resistant cells. Individual clones (293-CymR) were isolated from this pool by the method of limiting dilution.
293CymR clones were infected with AdCMV5-Og-LacZ in the presence and absence of 200 μg/ml cumate. β-galactosidase activity was measured 48 h post-infection.

[6] = target: CymR-VP16 transactivator in 293 cells (Pseudomonas putida, UniProt O33453); type: cell-based
Description: Transient transfections in 293 and HeLa cells were carried out using the calcium phosphate technique. One (1) ml of DNA-calcium phosphate precipitate contained 5 μg reporter, 250 ng activator/repressor (unless mentioned otherwise) and 3 μg seap in a total of 10 μg DNA. This was divided equally between two 60 mm plates, each containing 10^6 293 cells. One of the two plates received in addition 200 μg/ml cumate. Transient transfections in BMAD78-42 were carried out using Geneporter™ according to manufacturers directions. Briefly, 3 μg DNA (2 μg reporter, 25 ng transactivator and 0.5 μg seap) in 500 μl DMEM was added to 6×10^5 BMAd78-42 cells in DMEM. After 3 h 1 ml DMEM supplemented with 20% serum was added to the plates. Half the samples received DMEM supplemented with 20% serum and 400 μg/ml cumate.
Measurement of Seap and β-gal activity Seap activity was measured in 50 μl of cell culture medium by adding 50 μl of 2× seap buffer (1M diethanolamine PH 9.8, 2 mM MgCl2, 10 mM 1-homoarginine and 20 mM p-nitrophenyl phosphate, disodium, hexahydrate Sigma 104 phosphatase substrate) and incubating at room temperature. OD405 was read using a plate reader at different intervals. This information was used to ensure that the enzyme activity was measured under conditions where the substrate was in excess. β-galactosidase activity was measured in transfected cell extracts. Cells were lysed 48 h post-transfection by three freeze-thaw cycles in 0.25M Tris.Hcl pH8. The cell lysate was centrifuged at 14,000×g and enzyme (β-galactosidase) activity was measured in the supernatant (cell extract) using a colorimetric assay containing 1 mM MgCl2, 0.9 mg/ml ONPG, and 66 mM sodium phosphate (pH 7.5). Reactions were incubated at 37° C. until a faint yellow color had developed. OD420 was measured at regular intervals until the reaction appeared to plateau. To measure low level activity (basal activity in the absence of transactivation) a chemiluminescent substrate was used. The reaction was performed using a kit from Roche diagnostics according to the instructions of the manufacturer.
To test the system, reporter and activator constructs as described in Example I above, were co-transfected into 293 cells by the calcium-phosphate technique. A plasmid carrying the secreted alkaline phosphatase coding sequence under the control of a constitutive promoter was included in all transfections and seap activity in the cell culture medium was used to normalize for transfection efficiency.

[7] = target: T1, CymR repressor in 293 cells (Pseudomonas putida, UniProt O33453); experiment: Strategy 2: CymR-mediated repression of CMV5-operator LacZ reporters, transient transfection in 293 cells; type: cell-based
T1 construct: expressed in transfected cells; host or cells: 293 cells

[8] = Water solubility of effectors; type: physicochemical

Sequence of CymR-VP16 transactivator in 293 cells (O33453 whole entry, added parts left off): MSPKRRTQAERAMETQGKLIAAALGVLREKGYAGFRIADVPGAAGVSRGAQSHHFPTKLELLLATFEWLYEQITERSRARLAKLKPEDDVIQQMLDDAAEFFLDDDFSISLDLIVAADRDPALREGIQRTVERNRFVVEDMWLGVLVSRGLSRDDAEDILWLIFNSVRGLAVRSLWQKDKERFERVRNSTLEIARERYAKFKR
T1 sequence (O33453 whole entry): as the sequence (O33453 whole entry, added parts left off) above
Sequence of CymR-VP16 transactivator in HeLa cells (O33453 whole entry, added parts left off): as above
Sequence of CymR-VP16 transactivator in BMAdE1/78-42 cells (O33453 whole entry, added parts left off): as above

Molecule: O=C(O)c1ccc(O)c(O)c1 [3,4-dihyroxybenzoic acid]
- ability to act as inducer [1]: none of these compounds could act as effective inducers

Molecule: O=C(O)c1cccc(O)c1 [3-hydroxybenzoic acid, 3- and 4-hydroxybenzoic acids]
- ability to act as inducer [1]: none of these compounds could act as effective inducers

Molecule: Cc1ccc(CO)cc1 [4-methyl benzylalcohol]
- ability to act as inducer [1]: none of these compounds could act as effective inducers

Molecule: CCCc1ccc(C(=O)O)cc1 [C4, p-Propylbenzoic acid]
- activity as activator (effector molecule) (293 CuO-GFP clone 13): good activators

Molecule: CC(C)Cc1ccc(C(=O)O)cc1 [C6, p-isobutylbenzoic acid]
- activity as activator (effector molecule) (293 CuO-GFP clone 13): good activators

Molecule: CN(C)c1ccc(C(=O)O)cc1 [C11, p-N-dimethylaminobenzoic acid]
- activity as activator (effector molecule) (293 CuO-GFP clone 13): good activators

Molecule: CCNc1ccc(C(=O)O)cc1 [C13, p-N-ethylaminobenzoic acid]
- activity as activator (effector molecule) (293 CuO-GFP clone 13): good activators

Molecule: CN(C)c1ccc(C(=O)O)cc1 [DM PABA, Di-methyl p-aminobenzoic acid]
- ability to act as inducer ([1]; 0.02 mM): effective inducers
- ability to act as inducer ([1]; 0.1 mM): just as good an inducer as parent cumate

Molecule: CCc1ccc(C(=O)[O-])cc1.[Na+] [Na^+ 4-ethylbenzoate]
- ability to act as inducer [1]: acts as an inducer
- response compared with parental cumate [1]: not as good as the parental cumate

Molecule: O=C(O)c1ccccc1 [benzoic acid, Benzoic acid]
- ability to act as inducer [1]: none of these compounds could act as effective inducers

Molecule: CC(C)c1ccc(C(=O)O)cc1 [cumate, cumic acid]
- activity as activator (effector molecule) (293 CuO-GFP clone 13): good activators
- effects on morphology or growth rates (mammalian cells; 200 μg/ml cumate in media, 4 weeks): No visible effects
- toxicity to mammalian cells (mammalian cells; concentrations that effectively regulate gene expression): does not appear to be toxic
- induction of VSVg and syncitia formation on addition of cumate (293-CymR cells): induces the expression of VSVg
- share of the increase obliterated by addition of cumate ([2]; reporter moi 10, activator moi 0.1): 95%
- share of the increase obliterated by addition of cumate ([2]; reporter moi 10, activator moi 1): 98%
- decrease in activation by the transactivator on addition of cumate ([3]; pAdcTA1(+nls)): 9.4 fold
- reduction in activation on addition of cumate ([3]; pAdcTA1(−nls)): 34 fold
- cells positive for GFP expression in the presence of cumate (293-CuO-GFPq13# cells; 48 h culture): 100%
- ON/OFF ratio of total GFP fluorescence (293-CuO-GFPq13# cells; clone 293-CuO-GFPq13#): 246
- Total GFP fluorescence, ON state (293-CuO-GFPq13# cells; with cumate, flow cytometer): 9255
- VSVg expression on addition of cumate (western) (293-CymR clone 21): clearly evident
- threshold cumate concentration for induction ([1]; P2-cymlacZ fusion system): ~0.002 mM
- GFP expression over mock infected cells after addition of cumate ([4]; AdCR5-GFPq MOI 100, 200 μg/ml cumate): 2 fold
- GFP expression over mock infected cells after addition of cumate ([4]; AdCR5-GFPq MOI 300, 200 μg/ml cumate): 4.5 fold
- GFP expression over mock infected cells after addition of cumate ([4]; AdCR5-GFPq MOI 900, 200 μg/ml cumate): 20.6 fold
- reduction of activation on addition of cumate ([5]; BMAdE1/78-42, pAdcTA1(+nls)): 3.9 fold
- reduction in activation on addition of cumate ([5]; BMAdE1/78-42, pAdcTA1(−nls)): 22 fold
- ON/OFF ratio (β-gal with vs without cumate) (293-CymR clones; 293-CymR clone 21, AdCMV5-Og-LacZ): 19
- ON/OFF ratio (β-gal with vs without cumate) (293-CymR clones; 293-CymR clone 22, AdCMV5-Og-LacZ): 16
- ON/OFF ratio (β-gal with vs without cumate) (293-CymR clones; 293-CymR clone 23, AdCMV5-Og-LacZ): 7.6
- reduction of activation on addition of cumate ([6]; pAdCR5LacZ + pAdcTA1(+nls), 200 μg/ml cumate): 78%
- reduction of activation on addition of cumate ([6]; pAdcTA1(−nls), 50 μg/ml cumate): 86%
- reduction of activation on addition of cumate ([6]; pAdcTA1(−nls), 100 μg/ml cumate): 87%
- reduction of activation on addition of cumate ([6]; pAdcTA1(−nls), 200 μg/ml cumate): 89%
- activity of the unrepressed state recovered on addition of cumate ([7]; nls-containing repressor, pAdCMV5-Og-LacZ): 61%
- relief of repression on addition of cumate ([7]; nls-containing repressor, pAdCMV5-Os-LacZ): relieved the repression completely
- relief of repression on addition of cumate ([7]; pAdCymR, both pAdCMV5-Os-LacZ and pAdCMV5-Og-LacZ): relieved the repression totally

Molecule: CC(C)c1ccc(CO)cc1 [cumic alcohol]
- ability to act as inducer [1]: none of these compounds could act as effective inducers

Molecule: O=C(O)c1cc2ccccc2[nH]1 [indole-2-carboxylic acid]
- ability to act as inducer [1]: none of these compounds could act as effective inducers

Molecule: O=C(O)c1c[nH]c2ccccc12 [indole-3-carboxylic acid]
- ability to act as inducer [1]: none of these compounds could act as effective inducers

Molecule: O=C([O-])c1ccccc1.[Na+] [sodium benzoate]
- ability to act as inducer [1]: ineffective

Molecule: CC(C)c1ccc(C(=O)[O-])cc1.[Na+] [sodium salt of cumic acid]
- water solubility [8]: water-soluble
- threshold of concentration giving a response, vs cumic acid [1]: did not change appreciably

Molecule: Na^+ trimethyl cumate
- response compared with parental cumate [1]: not as good as the parental cumate
- ability to act as inducer ([1]; 0.1 mM): effective inducer

Molecule: ethyltoluene
- ability to act as inducer [1]: none of these compounds could act as effective inducers

Molecule: sodium toluate
- ability to act as inducer [1]: ineffective
